The values below come from patent publication US20150141460A1, “Anti-inflammatory Compositions” (Cambridge Enterprise Limited, priority 2007, published 2015).

Each structure is given as a SMILES string. Where two headings read alike, the source gives them in different places.

Data set [1] deals with chemokine-induced migration. Kind of data set: BSCI potency: inhibition of chemokine-induced migration in vitro (general statements). The format is cell-based.
The nature of data set [2]: Distribution of unchanged compound into tissues and urine 24 hrs after a single dose in rat. The format is in vivo. Particulars: for Urine (ng/ml) unchanged parent compound: 24 hrs after a single oral dose 3 mg/kg in 1% CMC. How it is done: Urine was collected from rats exposed to a single oral dose (3 mg/kg in 1% CMC) of each compound over a 24 hour period in metabolic cages. The pooled urine sample was then subjected to full scan mass spectral analysis, using the same LC-MS conditions as described in example 1 above. Further MS-MS analysis of the product ions was then performed, and likely fragmentations/re-arrangements assigned from the publicly available Metabolite ID database.
To provide a quantitative estimate of the degree of metabolism suffered by each of the compounds tested, the amount of unchanged parent compound in urine was measured using the same validated LC-MS assay described in example 1, using (S)-3-(2′,2′-dimethylpropanoylamino)-caprolactam as an internal standard. In addition, the level of compounds in various target tissues was also determined.

Data set [3] has as its system MCP-1 induced migration of THP-1 cells. Kind of data set: ChemoTx transwell migration assay, MCP-1 induced migration of THP-1 cells. The format is cell-based. Particulars: Homo sapiens. Here is the method: FIGS. 6A-6F show representative dose response curves for the inhibition of chemokine-induced leukocyte migration in vitro, for each of the five compounds (I′) to (V) in the ChemoTx™ transwell migration assay. In each experiment, THP-1 cells were induced to migrate using a maximally effective dose of the chemokine MCP-1 in the presence or absence of various doses (from 10 pM to 1 μM) of each compound. An appropriate vehicle control was used in each experiment. The percentage inhibition of MCP-1 induced migration (calculated as the number of cells migrated in the presence of MCP-1 minus the number of cells migrated with MCP-1 omitted from the lower chamber) at each concentration of each test compound is shown as the mean of triplicate determinations, with whiskers representing SEM. The ED50 was estimated by linear interpolation of the presented graphs. The Y-axis of each graph represents the percentage inhibition of MCP-1 induced migration; the X-axis represents the concentration of test compound present in units of nM (0.01-1000).
In principle, this assay consists of two chambers separated by a porous membrane. The chemoattractant is placed in the lower compartment and the cells are placed in the upper compartment. After incubation for a period at 37° C. the cells move towards the chemoattractant, and the number of cells in the lower compartment is proportional to the chemoattractant activity (relative to a series of controls).
The THP-1 cell line (European Cell Culture Collection) were used as the leukocyte cell population.
First, the cell suspension to be placed in the upper compartment is prepared. The THP-1 cells are pelleted by centrifugation (770×g; 4 mins) and washed with Geys Balanced Salt Solution with 1 mg/ml BSA (GBSS+BSA). This wash is then repeated, and the cells repelleted before being resuspended in a small volume of GBSS+BSA for counting, for example using a standard haemocytometer.
The volume of GBSS+BSA is then adjusted depending on the number of cells present so that the cells are at final density of 4.45×10^6 cells per ml of GBSS+BSA. This ensures that there are […] THP-1 cells in each 25 μl of the solution that will be placed in the upper chamber of the plate.
To test a single compound for its ability to inhibit chemokine induced migration, it is necessary to prepare two lots of cells. The suspension of THP-1 cells at 4.45×10^6 cells/ml is divided into two pots. To one pot the inhibitor under test is added at an appropriate final concentration, in an appropriate vehicle (for example at 1 μM in not more than 1% DMSO). To the second pot an equal volume of GBSS+BSA plus vehicle as appropriate (e.g. not more than 1% DMSO) is added to act as a control.
Next, the chemoattractant solution to be placed in the lower compartment is prepared. […]

[4] abbreviates: THP-1 cell line, maximal dose of chemoattractant, Table 6, read-out: ED50 MCP-1 induced migration.
The mark [5] stands for this setting: THP-1 cells, Table 5, read-out: Functional ED50 versus MCP-1.

Consider `CC(C)(C)C(=O)N[C@H]1CCCNC1=O` [Compound (I′), (S)-3-(2′,2′-dimethylpropanoylamino)-tetrahydropyridin-2-one], for which, in data set [1], the “potency as a BSCI, fold more potent than the (R)-enantiomer” value is reported as 5-25 fold. Moreover, in data set [2], the “Urine (ng/ml) unchanged parent compound” value was 24567 ng/mL. Besides, the “unchanged parent compound recovered in urine, % of the injected dose” value in data set [2] (single oral dose 3 mg/kg in 1% CMC, 24 hrs) was “more than 60%”. Further, the EC50 in data set [3] (setting [4]) and in data set [3] (setting [5]) was 0.05 nM each time.

Regarding `O=C1NCCCC[C@@H]1NC(=O)C12CC3CC(CC(O)(C3)C1)C2` [Compound (V), 3-(3′-hydroxyadamantyl-1-carbonylamino)-caprolactam], the “Urine (ng/ml) unchanged parent compound” value in data set [2] is 16300 ng/mL. Besides, the EC50 in data set [3] (setting [4]) and in data set [3] (setting [5]) was 0.12 nM throughout.
